# According to patent US20260049076A1, “Tertiary Amine Substituted Bicyclic Compounds Useful as T Cell Activators” (BRISTOL-MYERS SQUIBB COMPANY, priority 2022, published 2026):
# Columns and labels:
# [1] = target: T1, human DGKα (Homo sapiens, UniProt P23743); assay: In vitro DGK inhibition assay, DGKα liposome (LIPGLO) assay; format: biochemical; details: read-out: Enzyme Inhibition DGKalpha IC50
# T1 construct: TVMV protease cleavage site (C); Hexa-His (C); made in house; host or cells: Sf9 insect cells (baculovirus)
# T1 sequence (P23743 with tags, fused parts or gaps): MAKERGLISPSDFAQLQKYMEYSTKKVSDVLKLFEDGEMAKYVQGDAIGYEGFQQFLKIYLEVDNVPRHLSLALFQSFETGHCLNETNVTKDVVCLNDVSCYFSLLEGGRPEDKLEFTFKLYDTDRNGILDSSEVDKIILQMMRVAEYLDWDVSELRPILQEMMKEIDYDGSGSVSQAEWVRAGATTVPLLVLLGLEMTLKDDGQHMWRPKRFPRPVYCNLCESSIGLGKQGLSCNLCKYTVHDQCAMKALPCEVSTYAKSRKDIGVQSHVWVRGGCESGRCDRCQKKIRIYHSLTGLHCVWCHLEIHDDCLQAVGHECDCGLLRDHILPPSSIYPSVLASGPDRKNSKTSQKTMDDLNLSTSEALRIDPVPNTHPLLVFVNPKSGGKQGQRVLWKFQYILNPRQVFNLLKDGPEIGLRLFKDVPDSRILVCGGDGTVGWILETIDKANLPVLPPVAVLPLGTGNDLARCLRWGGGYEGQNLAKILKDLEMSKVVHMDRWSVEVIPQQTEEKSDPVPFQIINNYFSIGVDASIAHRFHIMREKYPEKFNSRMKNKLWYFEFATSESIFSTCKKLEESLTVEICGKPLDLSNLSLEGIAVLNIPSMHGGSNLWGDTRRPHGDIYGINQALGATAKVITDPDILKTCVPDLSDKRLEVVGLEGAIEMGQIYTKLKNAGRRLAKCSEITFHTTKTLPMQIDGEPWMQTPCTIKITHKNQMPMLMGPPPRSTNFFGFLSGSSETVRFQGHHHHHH
# Experimental: (§1) The DGKα and DGKζ reactions were performed using either extruded liposome (DGKα and DGKζ LIPGLO assays) or detergent/lipid micelle substrate (DGKα and DGKζ assays). The reactions were carried out in 50 mM MOPS pH 7.5, 100 mM NaCl, 10 mM MgCl2, 1 μM CaCl2, and 1 mM DTT (assay buffer). The reactions using a detergent/lipid micelle substrate also contained 50 mM octyl B-D-glucopyranoside. The lipid substrate concentrations were 11 mM PS and 1 mM DAG for the detergent/lipid micelle reactions. The lipid substrate concentrations were 2 mM PS, 0.25 mM DAG, and 2.75 mM PC for the extruded liposome reactions (5 mM total lipid). The reactions were carried out in 150 μM ATP The enzyme concentrations for the DGKα and DGKζ were 5 nM
# (§2) The compound inhibition studies were carried out as follows: 25 nL (ADPGLO assay) or 50 nL (LIPGLO assay) droplets of each test compound (top concentration 10 mM with 11 point, 3-fold dilution series for each compound) solubilized in DMSO were transferred to wells of a white 1536 well plate (Corning 3725). A 5 mL enzyme/lipid substrate solution at 2× final reaction concentration was prepared by combining 2.5 mL 4× enzyme solution (20 nM DGKα, or DGKζ (prepared as described below) in assay buffer) and 2.5 mL of either 4× liposome or 4× detergent/lipid micelle solution (compositions described below) and incubated at room temperature for 10 minutes. Next, 1 μL 2× enzyme/lipid substrate solution was added to wells containing the test compound and reactions were initiated with the addition of 1 μL 300 uM ATP. The reactions were allowed to proceed for 2 hr (ADPGLO assay) or 1 hr (LIPGLO assay), after which 2 μL Glo Reagent (Promega V9101) was added and incubated for 40 minutes. Next, 4 μL Kinase Detection Reagent was added and incubated for 30 minutes. Luminescence was recorded using an EnVision microplate reader. […] The compounds were evaluated at 11 concentrations to determine IC50.
# (§3) The lipid composition was 5 mol % DAG (Avanti 8008110), 40 mol % PS (Avanti 840035P), and 55 mol % PC (Avanti 850457) at a total lipid concentration of 7-8 mg/mL for the liposome solution. The PC, DAG, and PS were dissolved in chloroform, combined, and dried in vacuo to a thin film. The lipids were hydrated to 20 mM in 50 mM MOPS pH 7.5, 100 mM NaCl, 5 mM MgCl2, and were freeze-thawed five times. The lipid suspension was extruded through a 100 nm polycarbonate filter 10-12 times. […] The liposome preparation was stored at 4° C. for as long as four weeks.
# as §3, with “15.2” for “7-8”, “the 4×” for “the”, “eleven” for “10-12”
# (§4) Human DGK-alpha-TVMV-His-pFBgate and human DGK-zeta-transcript variant-2-TVMV-His-pFBgate baculovirus samples were generated using the Bac-to-Bac baculovirus expression system (Invitrogen) according to the manufacturer's protocol. […] Baculovirus amplification was achieved using infected Sf9 cells at 1:1500 virus/cell ratios, and grown for 65 hours at 27° C. post-transfection.
# (§5) The expression scale up for each protein was carried out in the Cellbag 50L WAVE-Bioreactor System 20/50 from GE Healthcare Bioscience. 12 L of 2×10^6 cells/mL Sf9 cells (Expression System, Davis, CA) grown in ESF921 insect medium (Expression System) were infected with virus stock at 1:200 virus/cell ratios, and grown for 66-68 hours at 27° C. post-infection.
# [2] = target: T2, human DGKζ (Homo sapiens, UniProt Q13574); assay: In vitro DGK inhibition assay, DGKζ liposome (LIPGLO) assay; format: biochemical; details: read-out: Enzyme Inhibition DGKzeta IC50
# T2 construct: TVMV protease cleavage site (C); Hexa-His (C); made in house; host or cells: Sf9 insect cells (baculovirus)
# T2 sequence (Q13574 with tags, fused parts or gaps isoform Q13574-4): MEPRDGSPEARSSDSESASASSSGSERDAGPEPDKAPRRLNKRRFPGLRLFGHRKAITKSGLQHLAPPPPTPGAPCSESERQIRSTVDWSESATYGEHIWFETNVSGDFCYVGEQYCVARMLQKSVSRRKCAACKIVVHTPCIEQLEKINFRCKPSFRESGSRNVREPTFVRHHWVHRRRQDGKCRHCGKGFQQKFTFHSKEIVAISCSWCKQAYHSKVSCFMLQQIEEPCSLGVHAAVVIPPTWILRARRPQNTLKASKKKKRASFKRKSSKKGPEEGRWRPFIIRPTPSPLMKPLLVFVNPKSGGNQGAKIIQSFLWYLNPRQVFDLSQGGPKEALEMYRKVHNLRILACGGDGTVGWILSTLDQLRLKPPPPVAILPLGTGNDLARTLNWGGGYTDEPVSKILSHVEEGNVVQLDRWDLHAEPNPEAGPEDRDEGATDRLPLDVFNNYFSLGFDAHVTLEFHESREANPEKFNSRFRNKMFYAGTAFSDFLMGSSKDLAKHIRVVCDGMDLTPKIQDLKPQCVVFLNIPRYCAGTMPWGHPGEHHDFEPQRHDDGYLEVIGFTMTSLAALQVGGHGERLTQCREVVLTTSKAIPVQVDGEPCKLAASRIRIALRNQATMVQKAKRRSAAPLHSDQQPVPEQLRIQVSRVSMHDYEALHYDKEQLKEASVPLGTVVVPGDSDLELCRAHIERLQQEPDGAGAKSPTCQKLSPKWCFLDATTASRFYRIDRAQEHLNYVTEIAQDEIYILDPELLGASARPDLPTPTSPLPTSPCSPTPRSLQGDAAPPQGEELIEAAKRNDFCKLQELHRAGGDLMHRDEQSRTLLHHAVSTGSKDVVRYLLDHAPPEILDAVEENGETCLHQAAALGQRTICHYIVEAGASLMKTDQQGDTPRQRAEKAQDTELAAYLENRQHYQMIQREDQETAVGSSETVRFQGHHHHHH
# Experimental: as §1, §2, §3
# as §3, with “15.2” for “7-8”, “the 4×” for “the”, “eleven” for “10-12”
# as §4, §5
IC50 [1],IC50 [2],Compound
4.2 µM,0.15 µM,"Cn1c(=O)nc(N(CC2CC2)c2ccc(C3CC3)cc2)c2nc(C#N)ccc21 [Example 57, 4-((cyclopropylmethyl)(4-cyclopropylphenyl)amino)-1-methyl-2-oxo-1,2-dihydropyrido[3,2-d]pyrimidine-6-carbonitrile]"
4.8 µM,2.5 µM,"Cn1c(=O)cc(N(CC2CC2)c2ccc(OC(F)(F)F)cc2Cl)c2nc(C#N)ccc21 [Example 50, 8-((2-chloro-4-(trifluoromethoxy)phenyl)(cyclopropylmethyl)amino)-5-methyl-6-oxo-5,6-dihydro-1,5-naphthyridine-2-carbonitrile]"
0.66 µM,2.2 µM,"Cn1c(=O)cc(N(CC2CC2)c2cccc(-c3cccnc3)c2)c2nc(C#N)ccc21 [Example 106, 8-((cyclopropylmethyl)(3-(pyridin-3-yl)phenyl)amino)-5-methyl-6-oxo-5,6-dihydro-1,5-naphthyridine-2-carbonitrile]"
0.73 µM,36 µM,"Cc1ccc(N(C)c2cc(=O)n(C)c3ccc(C#N)nc23)cc1 [Example 20, 5-methyl-8-(methyl(p-tolyl)amino)-6-oxo-5,6-dihydro-1,5-naphthyridine-2-carbonitrile]"
44 µM,3.7 µM,"CN(C)C(=O)c1cccc(-c2cccc(N(CC3CC3)c3cc(=O)n(C)c4ccc(C#N)nc34)c2)c1 [Example 108, 3′-((6-cyano-1-methyl-2-oxo-1,2-dihydro-1,5-naphthyridin-4-yl)(cyclopropylmethyl)amino)-N,N-dimethyl-[1,1′-biphenyl]-3-carboxamide]"
5.3 µM,2 µM,"COc1ccc(-c2ccc(N(CC3CC3)c3cc(=O)n(C)c4ccc(C#N)nc34)cc2)cc1 [Example 73, 8-((cyclopropylmethyl)(4′-methoxy-[1,1′-biphenyl]-4-yl)amino)-5-methyl-6-oxo-5,6-dihydro-1,5-naphthyridine-2-carbonitrile]"
41 µM,5.2 µM,"Cn1c(=O)cc(N(CC2CC2)c2cccc(-c3cccc(C(N)=O)c3)c2)c2nc(C#N)ccc21 [Example 104, 3′-((6-cyano-1-methyl-2-oxo-1,2-dihydro-1,5-naphthyridin-4-yl) (cyclopropylmethyl)amino)-[1,1′-biphenyl]-3-carboxamide]"
0.77 µM,7.2 µM,"Cc1cccc(-c2cccc(N(CC3CC3)c3cc(=O)n(C)c4ccc(C#N)nc34)c2)c1 [Example 92, 8-((cyclopropylmethyl)(3′-methyl-[1,1′-biphenyl]-3-yl)amino)-5-methyl-6-oxo-5,6-dihydro-1,5-naphthyridine-2-carbonitrile]"
4.5 µM,21 µM,"COCc1ccccc1N(CC1CC1)c1cc(=O)n(C)c2ccc(C#N)nc12 [Example 67, 8-((cyclopropylmethyl)(2-(methoxymethyl)phenyl)amino)-5-methyl-6-oxo-5,6-dihydro-1,5-naphthyridine-2-carbonitrile]"
3.8 µM,3.7 µM,"Cn1c(=O)cc(N(CC2CC2)c2ccc(-c3cccc(O)c3)cc2)c2nc(C#N)ccc21 [Example 81, 8-((cyclopropylmethyl)(3′-hydroxy-[1,1′-biphenyl]-4-yl)amino)-5-methyl-6-oxo-5,6-dihydro-1,5-naphthyridine-2-carbonitrile]"
6.3 µM,3.7 µM,"CN(C)c1cccc(-c2cccc(N(CC3CC3)c3cc(=O)n(C)c4ccc(C#N)nc34)c2)c1 [Example 109, 8-((cyclopropylmethyl)(3′-(dimethylamino)-[1,1′-biphenyl]-3-yl)amino)-5-methyl-6-oxo-5,6-dihydro-1,5-naphthyridine-2-carbonitrile]"
> 38 µM,> 38 µM,"COc1ccc(-c2cccc(N(C)c3nc(=O)n(C)c4ccc(C#N)nc34)c2)cc1 [Example 2, 4-((4′-methoxy-[1,1′-biphenyl]-3-yl)(methyl)amino)-1-methyl-2-oxo-1,2-dihydropyrido[3,2-d]pyrimidine-6-carbonitrile]"
0.14 µM,73 µM,"CN(c1nc(=O)n(C)c2ccc(Cl)nc12)C1CCCCC1 [Example 30, 6-chloro-4-(cyclohexyl(methyl)amino)-1-methylpyrido[3,2-d]pyrimidin-2(1H)-one]"
6.2 µM,2.1 µM,"Cn1c(=O)cc(N(CC2CC2)c2ccc(-c3cccc(Cl)c3)cc2)c2nc(C#N)ccc21 [Example 76, 8-((3′-chloro-[1,1′-biphenyl]-4-yl)(cyclopropylmethyl)amino)-5-methyl-6-oxo-5,6-dihydro-1,5-naphthyridine-2-carbonitrile]"
3.9 µM,1.3 µM,"Cn1c(=O)cc(N(CC2CC2)c2ccc(-n3cccc3)cc2)c2nc(C#N)ccc21 [Example 54, 8-((4-(1H-pyrrol-1-yl)phenyl) (cyclopropylmethyl)amino)-5-methyl-6-oxo-5,6-dihydro-1,5-naphthyridine-2-carbonitrile]"
4.8 µM,56 µM,"Cc1ccccc1N(CC1CC1)c1cc(=O)n(C)c2ccc(C#N)nc12 [Example 49, 8-((cyclopropylmethyl)(o-tolyl)amino)-5-methyl-6-oxo-5,6-dihydro-1,5-naphthyridine-2-carbonitrile]"
> 37 µM,1.4 µM,"Cn1c(=O)c(C#N)c(N(CC2CC2)c2ccc(C3CC3)cc2)c2ncccc21 [Example 60, 4-((cyclopropylmethyl)(4-cyclopropylphenyl)amino)-1-methyl-2-oxo-1,2-dihydro-1,5-naphthyridine-3-carbonitrile]"
2.9 µM,5.4 µM,"COc1ccccc1-c1cccc(N(CC2CC2)c2cc(=O)n(C)c3ccc(C#N)nc23)c1 [Example 96, 8-((cyclopropylmethyl)(2′-methoxy-[1,1′-biphenyl]-3-yl)amino)-5-methy-6-oxo-5,6-dihydro-1,5-naphthyridine-2-carbonitrile]"
0.22 µM,3 µM,"Cn1c(=O)cc(N(CC2CC2)c2ccc(F)cc2)c2nc(C#N)ccc21 [Example 35, 8-((cyclopropylmethyl)(4-fluorophenyl)amino)-5-methyl-6-oxo-5,6-dihydro-1,5-naphthyridine-2-carbonitrile]"
2.5 µM,0.92 µM,"CN(C)c1cccc(-c2ccc(N(CC3CC3)c3cc(=O)n(C)c4ccc(C#N)nc34)cc2)c1 [Example 89, 8-((cyclopropylmethyl)(3′-(dimethylamino)-[1,1′-biphenyl]-4-yl)amino)-5-methyl-6-oxo-5,6-dihydro-1,5-naphthyridine-2-carbonitrile]"
0.12 µM,2 µM,"Cn1c(=O)cc(N(CC2CC2)c2cccc(-c3ccc(C(N)=O)cc3)c2)c2nc(C#N)ccc21 [Example 103, 3′-((6-cyano-1-methyl-2-oxo-1,2-dihydro-1,5-naphthyridin-4-yl)(cyclopropylmethyl)amino)-[1,1′-biphenyl]-4-carboxamide]"
> 37 µM,6.6 µM,"Cn1c(=O)c(C#N)c(N(CC2CC2)c2ccc(C3CC3)cc2)c2nc(C#N)ccc21 [Example 59, 8-((cyclopropylmethyl)(4-cyclopropylphenyl)amino)-5-methyl-6-oxo-5,6-dihydro-1,5-naphthyridine-2,7-dicarbonitrile]"
